For 15 compounds, mortality results are on record in patent publication US9661853B2, “Molecules having pesticidal utility, and intermediates, compositions, and processes, related thereto” (Dow AgroSciences LLC, priority 2015, dated 2017).

Usually mortality stands for the share of the test organisms that died.

Each structure is given as a SMILES string.

Test [1] has as its system Cabbage Looper (Trichoplusia ni, TRIPNI). As to the kind of experiment: Bioassay on Cabbage Looper (CL), 128-well diet tray assay. Type of test: in vivo. As to conditions: 168 h, 50 μg/cm^2 on artificial diet, second instar larvae, 25° C., five to seven days, average of eight wells, read-out: CL % Control (or Mortality) rating. Here is the method: (§1) Bioassays on Beet Armyworm (Spodoptera exigua, LAPHEG) (“BAW”) and Cabbage Looper (Trichoplusia ni, TRIPNI) (“CL”)
(§2) Certain molecules disclosed in this document were tested against BAW and CL using procedures described in the following examples. In the reporting of the results, the “BAW & CL Rating Table” was used (See Table Section).
Bioassays on CL were conducted using a 128-well diet tray assay. One to five second instar CL larvae were placed in each well (3 mL) of the diet tray that had been previously filled with 1 mL of artificial diet to which 50 μg/cm^2 of the test molecule (dissolved in 50 μL of 90:10 acetone-water mixture) had been applied (to each of eight wells) and then allowed to dry. Trays were covered with a clear self-adhesive cover, vented to allow gas exchange, and held at 25° C., 14:10 light-dark for five to seven days. Percent mortality was recorded for the larvae in each well; activity in the eight wells was then averaged. The results are indicated in the table entitled “Table ABC: Biological Results” (See Table Section).

The subject of test [2] is Beet Armyworm (Spodoptera exigua, LAPHEG). As to the kind of experiment: Bioassay on Beet Armyworm (BAW), 128-well diet tray assay. In kind it is in vivo. As to conditions: 168 h, 50 μg/cm^2 on artificial diet, second instar larvae, 25° C., five to seven days, average of eight wells, read-out: BAW % Control (or Mortality) rating. As to the method:
as §1, §2
Bioassays on BAW were conducted using a 128-well diet tray assay. One to five second instar BAW larvae were placed in each well (3 mL) of the diet tray that had been previously filled with 1 mL of artificial diet to which 50 μg/cm^2 of the test molecule (dissolved in 50 μL of 90:10 acetone-water mixture) had been applied (to each of eight wells) and then allowed to dry. Trays were covered with a clear self-adhesive cover, vented to allow gas exchange, and held at 25° C., 14:10 light-dark for five to seven days. Percent mortality was recorded for the larvae in each well; activity in the eight wells was then averaged. The results are indicated in the table entitled “Table ABC: Biological Results” (See Table Section).

As to `Cc1ccc(C(C)C)c(N2C(=O)CS/C2=N\C(=O)Nc2ccc(NCc3ncn(-c4ccc(OC(F)(F)F)cc4)n3)nc2)c1` [F46, (Z)-1-(3-(2-isopropyl-5-methylphenyl)-4-oxothiazolidin-2-ylidene)-3-(6-(((1-(4-(trifluoromethoxy)phenyl)-1H-1,2,4-triazol-3-yl)methyl)amino)pyridin-3-yl)urea], the mortality at 50 µg/cm2 in test [1] and in test [2] was 50 to 100% in each case.

Regarding `Cc1ccc(C(C)C)c(N2C(=O)CS/C2=N\C(=O)Nc2ccc(CNc3ncn(-c4ccc(OC(F)(F)F)cc4)n3)cn2)c1` [F11, (Z)-1-(3-(2-Isopropyl-5-methylphenyl)-4-oxothiazolidin-2-ylidene)-3-(5-(((1-(4-(trifluoromethoxy)phenyl)-1H-1,2,4-triazol-3-yl)amino)methyl)pyridin-2-yl)urea], the mortality at 50 µg/cm2 in test [1] and in test [2] was 50 to 100% each time.

Consider `Cc1ccc(C(C)C)c(N2C(=O)CS/C2=N\C(=O)Nc2ccc(NCc3ncn(-c4ccc(OC(F)(F)F)cc4)n3)cc2F)c1` [F31, (Z)-1-(2-Fluoro-4-(((1-(4-(trifluoromethoxy)phenyl)-1H-1,2,4-triazol-3-yl)methyl)amino)phenyl)-3-(3-(2-isopropyl-5-methylphenyl)-4-oxothiazolidin-2-ylidene)urea], for which the mortality at 50 µg/cm2 in test [1] and in test [2] was 50 to 100% throughout.

As for `CCCc1ccc(C)cc1N1C(=O)CS/C1=N\C(=O)Nc1ccc(NCc2ncn(-c3ccc(OC(F)(F)F)cc3)n2)c(OC)c1` [F38, (Z)-1-(3-Methoxy-4-(((1-(4-(trifluoromethoxy)phenyl)-1H-1,2,4-triazol-3-yl)methyl)amino)phenyl)-3-(3-(5-methyl-2-propylphenyl)-4-oxothiazolidin-2-ylidene)urea], the mortality at 50 µg/cm2 in test [1] and in test [2] was 50 to 100% throughout.

For the compound `Cc1ccc(C(C)C)c(N2C(=O)CS/C2=N\C(=O)Nc2ccc(CN(C)c3ncn(-c4ccc(OC(F)(F)F)cc4)n3)cc2)c1` [F24, (Z)-1-(3-(2-Isopropyl-5-methylphenyl)-4-oxothiazolidin-2-ylidene)-3-(4-((methyl(1-(4-(trifluoromethoxy)phenyl)-1H-1,2,4-triazol-3-yl)amino)methyl)phenyl)urea], the mortality at 50 µg/cm2 in test [1] and in test [2] was 50 to 100% each time.

On to `COCc1ccc(C)cc1N1C(=O)CS/C1=N\C(=O)Nc1ccc(CNc2ncn(-c3ccc(OC(F)(F)F)cc3)n2)c(Cl)c1` [F9, (Z)-1-(3-Chloro-4-(((1-(4-(trifluoromethoxy)phenyl)-1H-1,2,4-triazol-3-yl)amino)methyl)phenyl)-3-(3-(2-(methoxymethyl)-5-methylphenyl)-4-oxothiazolidin-2-ylidene)urea], for which the mortality at 50 µg/cm2 in test [1] and in test [2] was 50 to 100% each time.

Consider `COCc1ccc(C)cc1N1C(=O)CS/C1=N\C(=O)Nc1ccc(NCc2ncn(-c3ccc(OC(F)(F)F)cc3)n2)cc1Cl` [F42, (Z)-1-(2-Chloro-4-(((1-(4-(trifluoromethoxy)phenyl)-1H-1,2,4-triazol-3-yl)methyl)amino)phenyl)-3-(3-(2-(methoxymethyl)-5-methylphenyl)-4-oxothiazolidin-2-ylidene)urea], for which the mortality at 50 µg/cm2 in test [1] and in test [2] was 50 to 100% in each case.

Consider `CCCc1ccc(C)cc1N1C(=O)CS/C1=N\C(=O)Nc1ccc(NCc2ncn(-c3ccc(OC(F)(F)F)cc3)n2)c(Cl)c1` [F44, (Z)-1-(3-Chloro-4-(((1-(4-(trifluoromethoxy)phenyl)-1H-1,2,4-triazol-3-yl)methyl)amino)phenyl)-3-(3-(5-methyl-2-propylphenyl)-4-oxothiazolidin-2-ylidene)urea], for which the mortality at 50 µg/cm2 in test [1] and in test [2] was 50 to 100% in each case.

Turning to `CCCc1ccc(C)cc1N1C(=O)CS/C1=N\C(=O)Nc1ccc(NCc2ncn(-c3ccc(OC(F)(F)F)cc3)n2)cc1Cl` [F41, (Z)-1-(2-Chloro-4-(((1-(4-(trifluoromethoxy)phenyl)-1H-1,2,4-triazol-3-yl)methyl)amino)phenyl)-3-(3-(5-methyl-2-propylphenyl)-4-oxothiazolidin-2-ylidene)urea], the mortality at 50 µg/cm2 in test [1] and in test [2] was 50 to 100% in each case.

With `COCc1ccc(C)cc1N1C(=O)CS/C1=N\C(=O)Nc1ccc(NCc2ncn(-c3ccc(OC(F)(F)F)cc3)n2)c(F)c1` [F36, (Z)-1-(3-Fluoro-4-(((1-(4-(trifluoromethoxy)phenyl)-1H-1,2,4-triazol-3-yl)methyl)amino)phenyl)-3-(3-(2-(methoxymethyl)-5-methylphenyl)-4-oxothiazolidin-2-ylidene)urea], the mortality at 50 µg/cm2 in test [1] and in test [2] was 50 to 100% each time.

For the compound `CCCc1ccc(C)cc1N1C(=O)CS/C1=N\C(=O)Nc1ccc(CN(C)c2ncn(-c3ccc(OC(F)(F)F)cc3)n2)c(Cl)c1` [F19, (Z)-1-(3-Chloro-4-((methyl(1-(4-(trifluoromethoxy)phenyl)-1H-1,2,4-triazol-3-yl)amino)methyl)phenyl)-3-(3-(5-methyl-2-propylphenyl)-4-oxothiazolidin-2-ylidene)urea], the mortality at 50 µg/cm2 in test [1] and in test [2] was 0% throughout.

On to `Cc1ccc(C(C)C)c(N2C(=O)CS/C2=N\C(=O)Nc2ccc(N(C)C(=O)c3ncn(-c4ccc(OC(F)(F)F)cc4)n3)cc2)c1` [F27, (Z)—N-(4-(3-(3-(2-Isopropyl-5-methylphenyl)-4-oxothiazolidin-2-ylidene)ureido)phenyl)-N-methyl-1-(4-(trifluoromethoxy)phenyl)-1H-1,2,4-triazole-3-carboxamide], for which the mortality at 50 µg/cm2 in test [1] and in test [2] was 50 to 100% throughout.

On to `Cc1ccc(C(C)C)c(N2C(=O)CS/C2=N\C(=O)Nc2ccc(CN(C)c3ncn(-c4ccc(OC(F)(F)F)cc4)n3)cc2F)c1` [F22, (Z)-1-(2-Fluoro-4-((methyl(1-(4-(trifluoromethoxy)phenyl)-1H-1,2,4-triazol-3-yl)amino)methyl)phenyl)-3-(3-(2-isopropyl-5-methylphenyl)-4-oxothiazolidin-2-ylidene)urea], for which the mortality at 50 µg/cm2 in test [1] and in test [2] was 50 to 100% each time.

As for `CCCc1ccc(C)cc1N1C(=O)CS/C1=N\C(=O)Nc1ccc(NCc2ncn(-c3ccc(OC(F)(F)F)cc3)n2)c(F)c1` [F35, (Z)-1-(3-Fluoro-4-(((1-(4-(trifluoromethoxy)phenyl)-1H-1,2,4-triazol-3-yl)methyl)amino)phenyl)-3-(3-(5-methyl-2-propylphenyl)-4-oxothiazolidin-2-ylidene)urea], the mortality at 50 µg/cm2 in test [1] and in test [2] was 50 to 100% throughout.

As for `COCc1ccc(C)cc1N1C(=O)CS/C1=N\C(=O)Nc1ccc(NCc2ncn(-c3ccc(OC(F)(F)F)cc3)n2)c(OC)c1` [F39, (Z)-1-(3-Methoxy-4-(((1-(4-(trifluoromethoxy)phenyl)-1H-1,2,4-triazol-3-yl)methyl)amino)phenyl)-3-(3-(2-(methoxymethyl)-5-methylphenyl)-4-oxothiazolidin-2-ylidene)urea], the mortality at 50 µg/cm2 in test [1] and in test [2] was 50 to 100% throughout.
